The text below walks through data of US20240308973A1, “PHOSPHODIESTERASE 3 (PDE3) INHIBITORS” (Zoetis Services LLC, priority 2023, published 2024).

The target in data set [1] is dog PDE3A recombinant enzyme (Canis lupus familiaris, UniProt A0A8I3NYE0). In words: cPDE3A assay (fluorescent polarization). The class given is biochemical. The conditions noted are these: canine PDE3A, read-out: cPDE3 Inhibition (IC50). Summed up: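 Recombinant dog PDE3A (5 pg/μL final) with FAM-cyclic-3′,5′-AMP substrate, inhibition read as fluorescence polarization change. Compounds tested in ≥7-point series from 10 μM, 0.1% final DMSO; IC50 calculated.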

The subject of data set [2] is NT-proBNP. In words: NT-proBNP circulating biomarker reduction. To be noted: over a 12 hour period. The class given is in vivo, canine. The method, then:
NT-proBNP is a standard circulating biomarker of canine MMVD secreted by ventricular cardiomyocytes in response to stretching from volume or pressure overload. It is a well-defined diagnostic and prognostic biological indicator of myocardial wall stress and can be used as a biomarker for acute changes in left ventricular loading conditions. […] In one instance, Example #26 had reduced NT-proBNP levels by 49% and 62% at doses of 0.03 and 0.1 mg/kg, respectively, over a 12 hour period.

The nature of data set [3]: Dog plasma half-life after oral dose. The class given is in vivo. To be noted: Beagle dogs, oral dose 0.1 mg/kg, plasma over 72 hours, read-out: t½ (hrs), Dog Plasma Compound Half-life (converted). The protocol: Lastly, plasma half-life was assessed for a number of compounds in dogs. Beagle dogs were given an oral dose (0.1 mg/kg) of the respective compound accounting for a dose amount of about 1 mg/dog. Pimopendan was administered at a 0.3 mg/kg dose.

Data set [4] relates to adult human primary ventricular cardiomyocytes. In words: contractility amplitude (CA) assay. To be noted: for Contractility amplitude: vehicle 100, 1 Hz. The data set is classed as cell-based. The protocol: Further, Example #57 (30 μM) was tested in a contractility amplitude (CA) assay using adult human primary ventricular cardiomyocytes dissociated from human donor hearts to determine the potential of the compound to exert its positive inotropic effect by a single (Ca^2+ sensitization or inhibition of PDE3) or dual (Ca^2+ sensitization and inhibition of PDE3) mechanism of action. Cardiomyocytes were incubated at 35° C. under continuous perfusion (2 mL/minute) in a buffer (vehicle) solution (HEPES (10 mM), NaCl (145 mM), KCl (4 mM), MgCl2 1 mM), CaCl2) (1.8 mM) and dextrose (11.1 mM)) plus 0.1% DMSO). Cells were equilibrated for a minimum of 5 minutes and stimulated with 1.0 Hz with a 1.5× stimulation intensity. A 100 μM IBMX (3-isobutyl-1-methylxanthine) non-selective inhibitor of PDE was used. Treatment time and stimulation was 300 seconds at 1.0 Hz. Data was collected using MyoBLAZER™ (v 2.9.2) software. Equilibrated cells (n=12) were stimulated with supra-threshold voltage at 1 Hz pacing frequency (bipolar pulse of 3 ms duration). Starting at 1 V, the amplitude of the stimulating pulse was increased until the cardiomyocytes started generating contraction-relaxation cycles. Contractility amplitude was calculated from the average of the last 20 contractility transients. Contractility amplitude for vehicle, IBMX and IBMX with Example #57 was 100, 136.8 and 267.6, respectively. […] IBMX increased CA by inhibiting PDE, however, there was an even larger increase in CA in the presence of Ex #57. Additionally, the CA assay was used to assess the potential of Ex #57 to exert a shift in the calcium concentration EC50. […] From this second CA study, contractility of the myocytes was dose dependent on calcium concentration. Contractility at 100 μM, 1000 μM and 10,000 μM CaCl2 was 3.11, 56.31 and 228.61, respectively. With the addition of 30 μM Ex #57, respective contractility values increased to 40.17, 182.67 and 284.27.

dog PDE3A recombinant enzyme, sequence (A0A8I3NYE0 1-1135): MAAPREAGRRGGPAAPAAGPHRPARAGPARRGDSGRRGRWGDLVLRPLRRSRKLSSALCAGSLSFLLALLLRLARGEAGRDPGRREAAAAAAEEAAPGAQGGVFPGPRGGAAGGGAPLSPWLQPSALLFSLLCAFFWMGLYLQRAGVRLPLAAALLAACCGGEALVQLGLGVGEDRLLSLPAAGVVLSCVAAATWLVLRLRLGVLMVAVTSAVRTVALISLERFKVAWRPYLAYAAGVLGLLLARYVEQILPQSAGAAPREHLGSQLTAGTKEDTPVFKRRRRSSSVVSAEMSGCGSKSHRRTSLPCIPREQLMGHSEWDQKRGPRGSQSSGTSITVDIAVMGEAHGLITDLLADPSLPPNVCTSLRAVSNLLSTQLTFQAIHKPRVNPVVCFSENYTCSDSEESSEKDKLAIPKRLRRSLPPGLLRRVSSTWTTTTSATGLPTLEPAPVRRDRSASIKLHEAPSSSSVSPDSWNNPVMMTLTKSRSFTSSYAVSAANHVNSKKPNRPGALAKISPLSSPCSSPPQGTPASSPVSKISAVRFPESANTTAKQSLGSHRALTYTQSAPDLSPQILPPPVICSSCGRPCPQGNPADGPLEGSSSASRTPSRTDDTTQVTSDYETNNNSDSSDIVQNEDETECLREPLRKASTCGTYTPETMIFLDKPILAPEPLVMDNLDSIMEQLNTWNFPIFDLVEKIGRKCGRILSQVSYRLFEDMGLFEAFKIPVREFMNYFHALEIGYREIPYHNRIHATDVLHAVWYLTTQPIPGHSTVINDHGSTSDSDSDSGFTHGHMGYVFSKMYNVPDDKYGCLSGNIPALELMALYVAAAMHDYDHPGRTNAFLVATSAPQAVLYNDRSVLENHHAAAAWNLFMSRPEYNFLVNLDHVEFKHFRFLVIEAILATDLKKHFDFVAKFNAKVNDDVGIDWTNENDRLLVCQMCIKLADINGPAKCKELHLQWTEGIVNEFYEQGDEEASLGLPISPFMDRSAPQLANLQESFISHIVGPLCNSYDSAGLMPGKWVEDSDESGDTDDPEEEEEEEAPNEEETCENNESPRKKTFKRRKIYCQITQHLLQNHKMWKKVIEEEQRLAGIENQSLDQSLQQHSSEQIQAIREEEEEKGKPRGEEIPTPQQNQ

On to `CC1CC(=O)NN=C1c1cc(F)c2c(c1)C(C)(C)C(=O)N2` (stereo not shown) [Example #26, 7-fluoro-3,3-dimethyl-5-(4-methyl-6-oxo-1,4,5,6-tetrahydropyridazin-3-yl)indolin-2-one], for which the IC50 (as a rule, the point on the concentration scale where inhibition reaches its midpoint) in data set [1] was 7.4 nM. Further, the “reduced NT-proBNP levels” value is recorded as 49% in data set [2] (0.03 mg/kg) and 62% in data set [2] (0.1 mg/kg).

For the compound `CC1SC(=O)NN=C1c1cc(Cl)c2[nH]c(=O)sc2c1` (stereo not shown) [Example #56, 4-chloro-6-(6-methyl-2-oxo-3,6-dihydro-2H-1,3,4-thiadiazin-5-yl)benzo[d]thiazol-2 (3H)-one], the IC50 in data set [1] is 3.6 nM. Further, in data set [3], the half-life (commonly the time in which the quantity being followed falls by half) is 15 h.

`CC1SC(=O)NN=C1c1cc(F)c2c(c1)CC(=O)N2` (stereo not shown) [Example #57, 5-(7-fluoro-2-oxoindolin-5-yl)-6-methyl-3,6-dihydro-2H-1,3,4-thiadiazin-2-one]: the IC50 in data set [1] came out at 14.2 nM. The figures for the Contractility in data set [4] (100 μM CaCl2 with 30 μM Ex #57 (3.11 without)), in data set [4] (1000 μM CaCl2 with 30 μM Ex #57 (56.31 without)) and in data set [4] (10,000 μM CaCl2 with 30 μM Ex #57 (228.61 without)) were 40.17, 182.67 and 284.27, respectively. For the same compound, in data set [4] (100 μM IBMX with 30 μM Example #57), the Contractility amplitude came to 267.6. Moreover, the EC50 in data set [4] (Homo sapiens, Cardiomyocyte, without Ex #57 1286 μM, read-out: calcium concentration EC50 with Ex #57) was 821 µM. Further, in data set [3], the half-life is 10 h.

As for `CC1SC(=O)NN=C1c1cc(Cl)c2c(c1)C1(CC1)C(=O)N2` (stereo not shown) [Example #58, 5-(7′-chloro-2′-oxospiro[cyclopropane-1,3′-indolin]-5′-yl)-6-methyl-3,6-dihydro-2H-1,3,4-thiadiazin-2-one], in data set [1], the IC50 came out at 8.4 nM. Besides, the half-life in data set [3] is 7 h.

On to `CC1(C)C(=O)Nc2c(F)cc(C3=NNC(=O)SC3)cc21` [Example #59, 5-(7-fluoro-3,3-dimethyl-2-oxoindolin-5-yl)-3,6-dihydro-2H-1,3,4-thiadiazin-2-one], for which the IC50 in data set [1] is 22.2 nM. Also, in data set [3], the half-life is 5.2 h.

Consider `CC1(C)C(=O)Nc2c(Br)cc(C3=NNC(=O)SC3)cc21` [Example #66, 5-(7-bromo-3,3-dimethyl-2-oxoindolin-5-yl)-3,6-dihydro-2H-1,3,4-thiadiazin-2-one], for which, in data set [1], the IC50 was determined as 24.4 nM. Further, the half-life in data set [3] was 10.2 h.

In the case of `CC1SC(=O)NN=C1c1cc(-c2cscn2)c2c(c1)C(C)(C)C(=O)N2` (stereo not shown) [Example #68, 5-(3,3-dimethyl-2-oxo-7-(thiazol-4-yl)indolin-5-yl)-6-methyl-3,6-dihydro-2H-1,3,4-thiadiazin-2-one], in data set [1], the IC50 was determined as 118 nM. In data set [3], the half-life was 12 h.

For `CC1SC(=O)NN=C1c1cc2c(c(-c3ccc(Cl)cc3)c1)NC(=O)C2` (stereo not shown) [Example #71, 5-(7-(4-chlorophenyl)-2-oxoindolin-5-yl)-6-methyl-3,6-dihydro-2H-1,3,4-thiadiazin-2-one], in data set [1], the IC50 worked out at 90.4 nM. In addition, the half-life in data set [3] is 5.4 h.

`O=C1CCCc2cc(C3=NNC(=O)SC3)ccc2N1` [Example #72, 5-(2-oxo-2,3,4,5-tetrahydro-1H-benzo[b]azepin-7-yl)-3,6-dihydro-2H-1,3,4-thiadiazin-2-one]: the IC50 in data set [1] came to 28.2 nM. In addition, the half-life in data set [3] is 3.9 h.

Turning to `Cc1cc(C2=NNC(=O)SC2C)cc2c1NC(=O)CCC2` (stereo not shown) [Example #73, 6-methyl-5-(9-methyl-2-oxo-2,3,4,5-tetrahydro-1H-benzo[b]azepin-7-yl)-3,6-dihydro-2H-1,3,4-thiadiazin-2-one], the IC50 in data set [1] is 4.9 nM. Besides, the half-life in data set [3] was 7.5 h.

For the compound `CC1SC(=O)NN=C1c1cc(F)c2c(c1)C(C)(C)C(=O)N2` (stereo not shown) [Example #74, 5-(7-fluoro-3,3-dimethyl-2-oxoindolin-5-yl)-6-methyl-3,6-dihydro-2H-1,3,4-thiadiazin-2-one], in data set [1], the IC50 amounted to 13.3 nM. The half-life in data set [3] is 55 h.

As for `CC1SC(=O)NN=C1c1cc(Cl)c2c(c1)C(C)(C)C(=O)N2` (stereo not shown) [Example #75, 5-(7-chloro-3,3-dimethyl-2-oxoindolin-5-yl)-6-methyl-3,6-dihydro-2H-1,3,4-thiadiazin-2-one], the IC50 in data set [1] was determined as 9.7 nM. Also, the half-life in data set [3] is 50 h.

In the case of `CC1SC(=O)NN=C1c1cc(Br)c2c(c1)C(C)(C)C(=O)N2` (stereo not shown) [Example #76, 5-(7-bromo-3,3-dimethyl-2-oxoindolin-5-yl)-6-methyl-3,6-dihydro-2H-1,3,4-thiadiazin-2-one], the IC50 in data set [1] was found to be 15.2 nM. Besides, the half-life in data set [3] was 40 h.

Consider `CC1(C)C(=O)Nc2c(Cl)cc(-c3cnc4c(c3)CC(=O)N4)cc21` [Example #85, 5-(7-chloro-3,3-dimethyl-2-oxoindolin-5-yl)-1,3-dihydro-2H-pyrrolo[2,3-b]pyridin-2-one], for which the IC50 in data set [1] amounted to 49.7 nM. Besides, the half-life in data set [3] is 9 h.

As for `CC1(C)C(=O)Nc2c(Cl)cc(-c3cncnc3)cc21` [Example #86, 7-chloro-3,3-dimethyl-5-(pyrimidin-5-yl)indolin-2-one], the IC50 in data set [1] was determined as 115 nM. Further, the half-life in data set [3] was 96 h.

Regarding `CC(C)Cn1c(=O)n(C)c(=O)c2[nH]cnc21` [IBMX, 3-isobutyl-1-methylxanthine, reference compound], the Contractility amplitude in data set [4] (100 μM IBMX alone) is recorded as 136.8.
